Where two headings read alike, the source gives them in different places.
System: MCF-7 breast cancer cell line
Test: In vitro cytotoxicity, MTT assay
Details: Homo sapiens
Protocol: In vitro cytotoxic activity:
Firstly, cultures were delivered into sterile area then each vial was supplied with 3 mL of medium or balanced salt solution free from phenol red and serum. Cultures were subjected to incubation foe 2-4 g. After the incubation period, MTT solubilization solution was added to remove the produced formazan crystals. Spectrophotometric measurement of absorbance was carried out at 690 nm for the background which then subtracted from absorbance measured at 570 nm. Five different drug concentrations were used 100, 25, 6.3, 1.6 and 0.4 nM and measured in triplicate.
Cell cycle analysis and Apoptotic assay
was determined using Annexin V-FITC Apoptosis Detection Kit (Bio Vision) according to the manufacturer’s procedures. Briefly, cell lines were cultured and incubated with each of the tested compounds for 48 h. Then, the cells were collected by centrifugation and resuspended in 500 μl of 1X binding buffer. 5 μl of Annexin V-FITC was added and 5 μl of propidium iodide (PI 50 mg/ml, optional.). The cells were incubated at room temperature for
Em = 530 nm) using FITC signal detector and PI staining was analyzed by the phycoerythrin emission signal detector.
Apoptotic assay: cell lines were cultured and incubated with each of the tested compounds for 48 h.
Then, the cells were collected by centrifugation and resuspended in 500 μl of 1X binding buffer. 5 μl of Annexin V-FITC was added and 5 μl of propidium iodide (PI 50 mg/ml, optional.). the cells were incubated at room temperature for 5 min in the dark.
signal detector and PI staining was analyzed by the phycoerythrin emission signal detector.

## COc1cccc2c1C(=O)c1c(O)c3c(c(O)c1C2=O)C[C@@](O)(C(=O)CO)C[C@@H]3O[C@H]1C[C@H](N)[C@H](O)[C@H](C)O1 [Doxorubicin, doxorubicin, reference compound]
MCF7, read-out: IC50 (µM) ± SD cytotoxic activity, MCF-7, MTT, normal conditions
  IC50: 11.6 ± 0.46 µM
MCF7, read-out: IC50 (µM) ± SD cytotoxic activity, MCF-7, MTT, under hypoxia
  IC50: 2.72 ± 0.11 µM

Source: article PMC12454493, “Insight on novel sulfamoylphenyl pyrazole derivatives as anticancer carbonic anhydrase inhibitors” (Molecular Diversity, 2024)
